The numbers were not newly measured in paper PMC11946513, “Modulation of the substrate preference of a MYST acetyltransferase by a scaffold protein” (The Journal of Biological Chemistry, 2025), which cites them from elsewhere.

For orientation: Ki means a dissociation constant, usually derived from enzyme kinetics or from competition with a known ligand.

The structures appear in SMILES notation.

In the series the target is KAT6A MYST domain. To be noted: binding to the KAT6A MYST domain; acetyl-CoA competitive; read-out: inhibition constant (Ki). The procedure: The active enzyme concentration for each form of KAT6A was obtained through tight-binding inhibition ([48]) by PF-9363, which binds to the KAT6A MYST domain with an inhibition constant (Ki) of ≈0.3 nM ([6]).

For the molecule `COc1cccc(OC)c1S(=O)(=O)Nc1noc2cc(Cn3cccn3)cc(OC)c12` [PF-9363], the Ki is about 0.3 nM.
